{
  "source": "paper PMC12177174",
  "about": "(iScience, 2025)",
  "origin": "cited, not measured here",
  "system": "tumor cell proliferation",
  "details": "cited from earlier work",
  "data": [
    {"smiles": "Cc1c(-c2ccnc(C(F)(F)F)c2)ncn1CC(=O)Nc1ccc(-c2cnccn2)cn1", "note": "[RXC004]", "values": [
      {"measurement": "tumor cell proliferation", "value": "inhibits tumor cell proliferation"}
    ]}
  ]
}
